Measurements published in patent US8178668B2, “2-aminopyridine kinase inhibitors” (OSI Pharmaceuticals, LLC, priority 2008, dated 2012).

What was measured:
RON (human) = RON (human) (Homo sapiens, UniProt Q04912); assay: RON kinase AlphaScreen assay (Km of ATP); format: biochemical; details: ATP at Km; at least duplicate experiments
In short: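 AlphaScreen with PT66 donor/acceptor beads, read after 1 h, detected phosphorylation of biotinylated poly(Glu,Tyr) by human RON. Enzyme-started reactions ran 30 min at room temperature with ATP at Km. Buffer was HEPES pH 7.4 with MgCl2, glycerol, vanadate and 1% DMSO.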

MET (human) = MET (human) (Homo sapiens, UniProt P08581); assay: MET kinase AlphaScreen assay (Km of ATP); format: biochemical; details: ATP at Km; at least duplicate experiments
Chain of MET (human) (P08581 25-1390): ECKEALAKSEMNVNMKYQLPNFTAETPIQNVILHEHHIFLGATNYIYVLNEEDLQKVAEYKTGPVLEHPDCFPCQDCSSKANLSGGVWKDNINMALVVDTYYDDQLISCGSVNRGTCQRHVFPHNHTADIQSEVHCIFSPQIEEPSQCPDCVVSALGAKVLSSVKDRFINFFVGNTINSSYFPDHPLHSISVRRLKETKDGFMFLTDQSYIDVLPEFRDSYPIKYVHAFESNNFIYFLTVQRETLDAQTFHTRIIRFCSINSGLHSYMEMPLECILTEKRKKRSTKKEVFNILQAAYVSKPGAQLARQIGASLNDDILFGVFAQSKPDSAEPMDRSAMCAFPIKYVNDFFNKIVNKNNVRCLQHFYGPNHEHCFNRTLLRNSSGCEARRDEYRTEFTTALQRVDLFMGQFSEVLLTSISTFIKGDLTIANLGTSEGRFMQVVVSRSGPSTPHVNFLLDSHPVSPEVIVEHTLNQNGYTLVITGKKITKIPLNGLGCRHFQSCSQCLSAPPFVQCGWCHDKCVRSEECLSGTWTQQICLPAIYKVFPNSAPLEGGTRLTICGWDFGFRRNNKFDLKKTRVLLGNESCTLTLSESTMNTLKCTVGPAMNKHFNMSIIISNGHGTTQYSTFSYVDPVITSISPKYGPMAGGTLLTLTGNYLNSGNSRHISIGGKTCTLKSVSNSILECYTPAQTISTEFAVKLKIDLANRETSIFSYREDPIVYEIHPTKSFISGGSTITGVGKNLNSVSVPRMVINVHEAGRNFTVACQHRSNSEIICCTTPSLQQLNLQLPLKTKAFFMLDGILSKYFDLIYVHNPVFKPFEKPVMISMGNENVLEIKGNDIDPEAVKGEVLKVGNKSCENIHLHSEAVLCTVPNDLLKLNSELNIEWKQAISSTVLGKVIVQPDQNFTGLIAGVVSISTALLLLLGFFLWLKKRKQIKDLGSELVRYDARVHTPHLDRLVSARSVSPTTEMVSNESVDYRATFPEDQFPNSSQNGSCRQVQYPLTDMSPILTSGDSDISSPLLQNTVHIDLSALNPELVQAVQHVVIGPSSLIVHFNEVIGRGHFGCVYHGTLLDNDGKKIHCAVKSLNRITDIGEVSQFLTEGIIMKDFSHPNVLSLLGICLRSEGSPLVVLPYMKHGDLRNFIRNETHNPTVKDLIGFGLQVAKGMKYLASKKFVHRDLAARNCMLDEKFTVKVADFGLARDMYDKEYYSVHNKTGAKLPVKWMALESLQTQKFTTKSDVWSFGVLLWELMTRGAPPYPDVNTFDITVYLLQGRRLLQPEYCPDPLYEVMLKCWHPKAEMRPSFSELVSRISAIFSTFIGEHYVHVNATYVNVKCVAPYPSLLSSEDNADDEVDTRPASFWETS
In short: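 AlphaScreen detection with PT66 beads (1 h) follows a 60 min room-temperature MET reaction. Substrate is 200 ng/μL biotinylated poly(Glu,Tyr), with ATP set at an enzyme-optimized concentration. Buffer is HEPES pH 7.4 with MgCl2, MnCl2 and 0.334 mM vanadate, compounds at 1% DMSO.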

Chain of RON (human) (Q04912 25-1400): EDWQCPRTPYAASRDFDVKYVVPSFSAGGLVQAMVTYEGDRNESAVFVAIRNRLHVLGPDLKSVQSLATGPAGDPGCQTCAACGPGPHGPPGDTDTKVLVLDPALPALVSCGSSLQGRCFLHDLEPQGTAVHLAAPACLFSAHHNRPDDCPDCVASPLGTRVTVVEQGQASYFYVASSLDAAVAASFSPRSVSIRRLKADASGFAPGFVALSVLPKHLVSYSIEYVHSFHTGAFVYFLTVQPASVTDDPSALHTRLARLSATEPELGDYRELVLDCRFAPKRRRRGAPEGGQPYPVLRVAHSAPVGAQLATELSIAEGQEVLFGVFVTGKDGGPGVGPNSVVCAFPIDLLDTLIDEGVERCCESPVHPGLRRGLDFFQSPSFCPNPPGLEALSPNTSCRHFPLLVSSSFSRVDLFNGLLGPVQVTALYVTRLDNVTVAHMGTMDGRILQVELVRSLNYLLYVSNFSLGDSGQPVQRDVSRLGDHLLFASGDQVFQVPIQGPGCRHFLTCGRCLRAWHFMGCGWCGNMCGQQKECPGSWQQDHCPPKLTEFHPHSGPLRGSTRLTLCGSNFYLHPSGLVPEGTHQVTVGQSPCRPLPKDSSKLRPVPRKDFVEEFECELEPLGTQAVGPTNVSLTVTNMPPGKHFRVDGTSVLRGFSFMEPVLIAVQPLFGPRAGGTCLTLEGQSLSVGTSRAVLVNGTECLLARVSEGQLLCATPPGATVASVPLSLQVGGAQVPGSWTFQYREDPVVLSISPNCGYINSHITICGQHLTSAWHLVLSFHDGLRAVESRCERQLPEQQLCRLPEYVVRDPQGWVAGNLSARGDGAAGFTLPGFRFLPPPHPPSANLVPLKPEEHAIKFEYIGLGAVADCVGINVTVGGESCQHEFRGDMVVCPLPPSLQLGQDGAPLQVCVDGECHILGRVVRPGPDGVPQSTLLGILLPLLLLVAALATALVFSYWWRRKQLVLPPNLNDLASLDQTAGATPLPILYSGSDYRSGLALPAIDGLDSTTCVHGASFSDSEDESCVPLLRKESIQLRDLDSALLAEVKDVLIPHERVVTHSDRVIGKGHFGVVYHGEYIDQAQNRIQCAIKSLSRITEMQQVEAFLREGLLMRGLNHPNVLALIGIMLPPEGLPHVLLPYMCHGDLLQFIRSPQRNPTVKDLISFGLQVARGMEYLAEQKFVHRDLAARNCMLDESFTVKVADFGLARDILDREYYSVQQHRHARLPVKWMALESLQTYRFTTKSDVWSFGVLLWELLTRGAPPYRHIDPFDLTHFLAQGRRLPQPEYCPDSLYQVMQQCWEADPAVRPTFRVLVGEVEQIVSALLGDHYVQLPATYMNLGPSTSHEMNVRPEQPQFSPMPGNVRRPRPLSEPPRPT

Row | Compound | IC50 (RON (human)) | IC50 (MET (human))
1 | Nc1ncc(-c2cnn(C3CCNCC3)c2)cc1-c1nc2c(F)cccc2s1 [Example 256, 3-(4-Fluorobenzothiazol-2-yl)-5-(1-piperidin-4-yl-1H-pyrazol-4-yl)-pyridin-2-ylamine] | 0.1 to 1 µM | ≤ 0.1 µM
2 | Cc1cccc2sc(-c3cc(-c4cnn(C5CCNCC5)c4)cnc3N)nc12 [Example 257, 3-(4-Methylbenzothiazol-2-yl)-5-(1-piperidin-4-yl-1H-pyrazol-4-yl)-pyridin-2-ylamine] | 0.1 to 1 µM | 0.1 to 1 µM
3 | Nc1ncc(-c2cnn(C3CCNCC3)c2)cc1-c1nc2cc(Cl)ccc2s1 [Example 258, 3-(5-Chlorobenzothiazol-2-yl)-5-(1-piperidin-4-yl-1H-pyrazol-4-yl)-pyridin-2-ylamine] | 0.1 to 1 µM | ≤ 0.1 µM
4 | Nc1ncc(-c2cnn(C3CCNCC3)c2)cc1-c1nc2cccc(Cl)c2s1 [Example 259, 3-(7-Chlorobenzothiazol-2-yl)-5-(1-piperidin-4-yl-1H-pyrazol-4-yl)-pyridin-2-ylamine] | ≤ 0.1 µM | ≤ 0.1 µM
5 | Nc1ncc(-c2cnn(C3CCNCC3)c2)cc1-c1nc2cccc(C(F)(F)F)c2s1 [Example 260, 5-(1-Piperidin-4-yl-1H-pyrazol-4-yl)-3-(7-trifluoromethylbenzothiazol-2-yl)-pyridin-2-ylamine] | 0.1 to 1 µM | 0.1 to 1 µM
6 | Nc1ncc(-c2cnn(C3CCNCC3)c2)cc1-c1nc2cc(C(F)(F)F)ccc2s1 [Example 261, 5-(1-Piperidin-4-yl-1H-pyrazol-4-yl)-3-(5-trifluoromethylbenzothiazol-2-yl)-pyridin-2-ylamine] | 0.1 to 1 µM | 0.1 to 1 µM
7 | Nc1ncc(-c2cnn(C3CCNCC3)c2)cc1-c1nc2c(C(F)(F)F)cccc2s1 [Example 262, 5-(1-Piperidin-4-yl-1H-pyrazol-4-yl)-3-(4-trifluoromethylbenzothiazol-2-yl)-pyridin-2-ylamine] | 0.1 to 1 µM | 0.1 to 1 µM
8 | Cc1cccc2nc(-c3cc(-c4cnn(C5CCNCC5)c4)cnc3N)sc12 [Example 263, 3-(7-Methylbenzothiazol-2-yl)-5-(1-piperidin-4-yl-1H-pyrazol-4-yl)-pyridin-2-ylamine] | ≤ 0.1 µM | ≤ 0.1 µM
9 | COc1cccc2nc(-c3cc(-c4cnn(C5CCNCC5)c4)cnc3N)sc12 [Example 264, 3-(7-Methoxybenzothiazol-2-yl)-5-(1-piperidin-4-yl-1H-pyrazol-4-yl)-pyridin-2-ylamine] | 0.1 to 1 µM | ≤ 0.1 µM
10 | Nc1ncc(-c2cnn(C3CCNCC3)c2)cc1-c1nc2c(Br)cccc2s1 [Example 265, 3-(4-Bromobenzothiazol-2-yl)-5-(1-piperidin-4-yl-1H-pyrazol-4-yl)-pyridin-2-ylamine] | 0.1 to 1 µM | ≤ 0.1 µM
11 | Nc1ncc(-c2cnn(C3CCNCC3)c2)cc1-c1nc2ccc(OC(F)(F)F)cc2s1 [Example 266, 5-(1-Piperidin-4-yl-1H-pyrazol-4-yl)-3-(6-trifluoromethoxybenzothiazol-2-yl)-pyridin-2-ylamine] | 1 to 20 µM | 1 to 20 µM
12 | N#Cc1ccc2sc(-c3cc(-c4cnn(C5CCNCC5)c4)cnc3N)nc2c1 [Example 267, 2-[2-Amino-5-(1-piperidin-4-yl-1H-pyrazol-4-yl)-pyridin-3-yl]-benzothiazole-5-carbonitrile] | ≤ 0.1 µM | ≤ 0.1 µM
13 | N#Cc1ccc2nc(-c3cc(-c4cnn(C5CCNCC5)c4)cnc3N)sc2c1 [Example 268, 2-[2-Amino-5-(1-piperidin-4-yl-1H-pyrazol-4-yl)-pyridin-3-yl]-benzothiazole-6-carbonitrile] | 0.1 to 1 µM | 0.1 to 1 µM
14 | Nc1ncc(-c2cnn(C3CCNCC3)c2)cc1-c1nc2c(C(F)(F)F)ccc(F)c2s1 [Example 269, 3-(7-Fluoro-4-trifluoromethylbenzothiazol-2-yl)-5-(1-piperidin-4-yl-1H-pyrazol-4-yl)-pyridin-2-ylamine] | 0.1 to 1 µM | 0.1 to 1 µM
15 | Nc1ncc(-c2cnn(C3CCNCC3)c2)cc1-c1nc2cccc(F)c2s1 [Example 270, 3-(7-Fluorobenzothiazol-2-yl)-5-(1-piperidin-4-yl-1H-pyrazol-4-yl)-pyridin-2-ylamine] | 0.1 to 1 µM | 0.1 to 1 µM
16 | COc1ccc2sc(-c3cc(-c4cnn(C5CCNCC5)c4)cnc3N)nc2c1 [Example 271, 3-(5-Methoxybenzothiazol-2-yl)-5-(1-piperidin-4-yl-1H-pyrazol-4-yl)-pyridin-2-ylamine] | 0.1 to 1 µM | 0.1 to 1 µM
17 | Cc1ccc2sc(-c3cc(-c4cnn(C5CCNCC5)c4)cnc3N)nc2c1 [Example 272, 3-(5-Methylbenzothiazol-2-yl)-5-(1-piperidin-4-yl-1H-pyrazol-4-yl)-pyridin-2-ylamine] | 0.1 to 1 µM | 0.1 to 1 µM
18 | Nc1ncc(-c2cnn(C3CCNCC3)c2)cc1-c1nc2cccc(Br)c2s1 [Example 273, 3-(7-Bromobenzothiazol-2-yl)-5-(1-piperidin-4-yl-1H-pyrazol-4-yl)-pyridin-2-ylamine] | ≤ 0.1 µM | ≤ 0.1 µM
19 | Nc1ncc(-c2cnn(C3CCNCC3)c2)cc1-c1nc2c(F)c(F)ccc2s1 [Example 274, 3-(4,5-Difluorobenzothiazol-2-yl)-5-(1-piperidin-4-yl-1H-pyrazol-4-yl)-pyridin-2-ylamine] | 0.1 to 1 µM | ≤ 0.1 µM
20 | N#Cc1cccc2nc(-c3cc(-c4cnn(C5CCNCC5)c4)cnc3N)sc12 [Example 275, 2-[2-Amino-5-(1-piperidin-4-yl-1H-pyrazol-4-yl)-pyridin-3-yl]-benzothiazole-7-carbonitrile] | 0.1 to 1 µM | 0.1 to 1 µM
21 | Nc1ncc(-c2cnn(C3CCNCC3)c2)cc1-c1nc2cc(Br)ccc2s1 [Example 276, 3-(5-Bromobenzothiazol-2-yl)-5-(1-piperidin-4-yl-1H-pyrazol-4-yl)-pyridin-2-ylamine] | 0.1 to 1 µM | 0.1 to 1 µM
22 | COc1cccc2sc(-c3cc(-c4cnn(C5CCNCC5)c4)cnc3N)nc12 [Example 277, 3-(4-Methoxybenzothiazol-2-yl)-5-(1-piperidin-4-yl-1H-pyrazol-4-yl)-pyridin-2-ylamine] | 0.1 to 1 µM | 0.1 to 1 µM
23 | Nc1ncc(-c2cnn(C3CCNCC3)c2)cc1-c1nc2c(Cl)cccc2s1 [Example 278, 3-(4-Chlorobenzothiazol-2-yl)-5-(1-piperidin-4-yl-1H-pyrazol-4-yl)-pyridin-2-ylamine] | 0.1 to 1 µM | ≤ 0.1 µM
24 | Nc1ncc(-c2cnn(C3CCNCC3)c2)cc1-c1nc2ccc(C(F)(F)F)cc2s1 [Example 279, 5-(1-Piperidin-4-yl-1H-pyrazol-4-yl)-3-(6-trifluoromethylbenzothiazol-2-yl)-pyridin-2-ylamine] | 0.1 to 1 µM | 0.1 to 1 µM
25 | Cc1ccc(C(F)(F)F)c2nc(-c3cc(-c4cnn(C5CCNCC5)c4)cnc3N)sc12 [Example 280, 3-(7-Methyl-4-trifluoromethylbenzothiazol-2-yl)-5-(1-piperidin-4-yl-1H-pyrazol-4-yl)-pyridin-2-ylamine] | 0.1 to 1 µM | 0.1 to 1 µM
26 | Nc1ncc(-c2cnn(C3CCNCC3)c2)cc1-c1nc2cc(OC(F)(F)F)ccc2s1 [Example 281, 5-(1-Piperidin-4-yl-1H-pyrazol-4-yl)-3-(5-trifluoromethoxybenzothiazol-2-yl)-pyridin-2-ylamine] | 0.1 to 1 µM | 0.1 to 1 µM
